Results as given in ChEMBL document CHEMBL4043168, “The design and SAR of a novel series of 2-aminopyridine based LRRK2 inhibitors” (Bioorg Med Chem Lett, 2017).

Key:
[1] = target: Tyrosine-protein kinase Fyn (Homo sapiens) (UniProt P06241); assay: Inhibition of FYN activation Loop (QGAKFPIKWTAPEAALYGR) in human PBMC at 0.1 uM
[2] = target: Cyclin-dependent kinase 2 (Homo sapiens) (UniProt P24941); assay: Inhibition of CDK2 labeling at conserved Lys2 (DLKPQNLLINTEGAIK) in human PBMC at 1 uM
[3] = target: T1, Interleukin-1 receptor-associated kinase 4 (Homo sapiens) (UniProt Q9NWZ3); assay: Inhibition of IRAK4 conserved Lys1 (GYVNNTTVAVKK) in human PBMC at 1 uM
T1 sequence (whole entry): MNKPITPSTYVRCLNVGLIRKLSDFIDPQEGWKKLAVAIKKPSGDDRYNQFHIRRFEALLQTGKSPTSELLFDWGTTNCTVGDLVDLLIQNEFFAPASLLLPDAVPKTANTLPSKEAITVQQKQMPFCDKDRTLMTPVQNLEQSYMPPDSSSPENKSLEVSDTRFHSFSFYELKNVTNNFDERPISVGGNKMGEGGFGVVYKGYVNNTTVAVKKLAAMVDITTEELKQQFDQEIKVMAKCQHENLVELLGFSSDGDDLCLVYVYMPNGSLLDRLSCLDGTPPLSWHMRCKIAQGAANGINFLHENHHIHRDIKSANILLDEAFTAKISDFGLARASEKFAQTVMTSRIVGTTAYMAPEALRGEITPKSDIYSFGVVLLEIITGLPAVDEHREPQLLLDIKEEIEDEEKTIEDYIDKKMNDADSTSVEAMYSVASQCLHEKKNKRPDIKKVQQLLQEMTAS

[4] = target: Dual specificity mitogen-activated protein kinase kinase 2 (Homo sapiens) (UniProt P36507); assay: Inhibition of MAP2K2 conserved Lys2 (IMHRDVKPSNILVNSR) in human PBMC at 0.1 uM
[5] = target: NUAK family SNF1-like kinase 2 (Homo sapiens) (UniProt Q9H093); assay: Inhibition of NuaK2 conserved Lys1 (LVAIKSIR) in human PBMC at 1 uM
[6] = target: Myosin light chain kinase, smooth muscle (Homo sapiens) (UniProt Q15746); assay: Inhibition of smMLCK conserved Lys2 (QGIVHLDLKPENIMCVNK) in human PBMC at 0.1 uM
[7] = target: T2, Tyrosine-protein kinase JAK3 (Homo sapiens) (UniProt P52333); assay: Inhibition of JAK3 domain2 conserved Lys1 (YDPLGDNTGALVAVKQLQHSGPDQQR) in human PBMC at 1 uM
T2 sequence (whole entry): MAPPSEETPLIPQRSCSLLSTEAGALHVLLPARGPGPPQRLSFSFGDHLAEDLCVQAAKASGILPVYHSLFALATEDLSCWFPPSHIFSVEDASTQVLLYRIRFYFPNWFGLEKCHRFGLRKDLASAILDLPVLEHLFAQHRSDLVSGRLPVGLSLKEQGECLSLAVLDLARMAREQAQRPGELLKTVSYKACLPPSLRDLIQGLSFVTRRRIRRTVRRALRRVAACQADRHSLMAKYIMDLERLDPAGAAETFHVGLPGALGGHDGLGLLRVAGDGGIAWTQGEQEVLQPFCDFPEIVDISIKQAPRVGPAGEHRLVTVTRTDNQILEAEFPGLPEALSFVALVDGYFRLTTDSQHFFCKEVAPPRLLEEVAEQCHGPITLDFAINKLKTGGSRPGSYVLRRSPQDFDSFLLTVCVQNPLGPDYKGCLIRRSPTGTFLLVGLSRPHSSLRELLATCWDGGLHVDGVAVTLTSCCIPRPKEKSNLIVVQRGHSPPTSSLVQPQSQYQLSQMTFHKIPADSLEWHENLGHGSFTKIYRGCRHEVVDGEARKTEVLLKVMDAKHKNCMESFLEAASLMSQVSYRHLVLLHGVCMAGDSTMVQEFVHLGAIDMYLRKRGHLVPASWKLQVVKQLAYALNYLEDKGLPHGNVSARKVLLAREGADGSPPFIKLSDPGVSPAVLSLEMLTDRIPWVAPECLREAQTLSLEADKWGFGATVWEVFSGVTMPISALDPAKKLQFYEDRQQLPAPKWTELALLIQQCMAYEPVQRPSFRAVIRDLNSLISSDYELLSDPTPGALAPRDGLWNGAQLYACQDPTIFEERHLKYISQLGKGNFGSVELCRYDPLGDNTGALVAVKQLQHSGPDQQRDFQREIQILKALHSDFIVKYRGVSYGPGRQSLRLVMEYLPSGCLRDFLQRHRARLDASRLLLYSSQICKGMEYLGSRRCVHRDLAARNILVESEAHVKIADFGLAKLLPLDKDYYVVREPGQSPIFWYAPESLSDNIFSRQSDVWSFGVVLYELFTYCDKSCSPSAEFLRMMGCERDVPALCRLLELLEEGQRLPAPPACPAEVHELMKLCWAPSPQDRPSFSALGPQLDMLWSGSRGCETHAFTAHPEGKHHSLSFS

[8] = target: Serine/threonine-protein kinase Nek1 (Homo sapiens) (UniProt Q96PY6); assay: Inhibition of NEK1 conserved Lys2 (DIKSQNIFLTK) in human PBMC at 1 uM
[9] = target: Dual specificity mitogen-activated protein kinase kinase 7 (Homo sapiens) (UniProt O14733); assay: Inhibition of MAP2K7 conserved Lys2 (DVKPSNILLDER) in human PBMC at 0.1 uM
Chain of Dual specificity mitogen-activated protein kinase kinase 7 (Homo sapiens) (O14733 whole entry): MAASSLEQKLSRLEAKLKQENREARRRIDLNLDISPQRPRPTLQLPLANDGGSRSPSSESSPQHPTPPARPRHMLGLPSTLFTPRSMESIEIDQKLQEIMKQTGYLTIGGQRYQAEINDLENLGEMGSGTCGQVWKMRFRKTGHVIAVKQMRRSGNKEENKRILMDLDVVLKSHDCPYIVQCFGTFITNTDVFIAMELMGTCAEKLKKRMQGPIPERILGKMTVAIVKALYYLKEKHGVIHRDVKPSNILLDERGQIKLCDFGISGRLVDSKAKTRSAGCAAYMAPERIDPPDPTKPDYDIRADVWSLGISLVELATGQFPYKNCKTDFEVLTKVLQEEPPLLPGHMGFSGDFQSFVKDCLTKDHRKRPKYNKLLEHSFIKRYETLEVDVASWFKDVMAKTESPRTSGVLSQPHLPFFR

Chain of Myosin light chain kinase, smooth muscle (Homo sapiens) (Q15746 whole entry, the tested form may be a part): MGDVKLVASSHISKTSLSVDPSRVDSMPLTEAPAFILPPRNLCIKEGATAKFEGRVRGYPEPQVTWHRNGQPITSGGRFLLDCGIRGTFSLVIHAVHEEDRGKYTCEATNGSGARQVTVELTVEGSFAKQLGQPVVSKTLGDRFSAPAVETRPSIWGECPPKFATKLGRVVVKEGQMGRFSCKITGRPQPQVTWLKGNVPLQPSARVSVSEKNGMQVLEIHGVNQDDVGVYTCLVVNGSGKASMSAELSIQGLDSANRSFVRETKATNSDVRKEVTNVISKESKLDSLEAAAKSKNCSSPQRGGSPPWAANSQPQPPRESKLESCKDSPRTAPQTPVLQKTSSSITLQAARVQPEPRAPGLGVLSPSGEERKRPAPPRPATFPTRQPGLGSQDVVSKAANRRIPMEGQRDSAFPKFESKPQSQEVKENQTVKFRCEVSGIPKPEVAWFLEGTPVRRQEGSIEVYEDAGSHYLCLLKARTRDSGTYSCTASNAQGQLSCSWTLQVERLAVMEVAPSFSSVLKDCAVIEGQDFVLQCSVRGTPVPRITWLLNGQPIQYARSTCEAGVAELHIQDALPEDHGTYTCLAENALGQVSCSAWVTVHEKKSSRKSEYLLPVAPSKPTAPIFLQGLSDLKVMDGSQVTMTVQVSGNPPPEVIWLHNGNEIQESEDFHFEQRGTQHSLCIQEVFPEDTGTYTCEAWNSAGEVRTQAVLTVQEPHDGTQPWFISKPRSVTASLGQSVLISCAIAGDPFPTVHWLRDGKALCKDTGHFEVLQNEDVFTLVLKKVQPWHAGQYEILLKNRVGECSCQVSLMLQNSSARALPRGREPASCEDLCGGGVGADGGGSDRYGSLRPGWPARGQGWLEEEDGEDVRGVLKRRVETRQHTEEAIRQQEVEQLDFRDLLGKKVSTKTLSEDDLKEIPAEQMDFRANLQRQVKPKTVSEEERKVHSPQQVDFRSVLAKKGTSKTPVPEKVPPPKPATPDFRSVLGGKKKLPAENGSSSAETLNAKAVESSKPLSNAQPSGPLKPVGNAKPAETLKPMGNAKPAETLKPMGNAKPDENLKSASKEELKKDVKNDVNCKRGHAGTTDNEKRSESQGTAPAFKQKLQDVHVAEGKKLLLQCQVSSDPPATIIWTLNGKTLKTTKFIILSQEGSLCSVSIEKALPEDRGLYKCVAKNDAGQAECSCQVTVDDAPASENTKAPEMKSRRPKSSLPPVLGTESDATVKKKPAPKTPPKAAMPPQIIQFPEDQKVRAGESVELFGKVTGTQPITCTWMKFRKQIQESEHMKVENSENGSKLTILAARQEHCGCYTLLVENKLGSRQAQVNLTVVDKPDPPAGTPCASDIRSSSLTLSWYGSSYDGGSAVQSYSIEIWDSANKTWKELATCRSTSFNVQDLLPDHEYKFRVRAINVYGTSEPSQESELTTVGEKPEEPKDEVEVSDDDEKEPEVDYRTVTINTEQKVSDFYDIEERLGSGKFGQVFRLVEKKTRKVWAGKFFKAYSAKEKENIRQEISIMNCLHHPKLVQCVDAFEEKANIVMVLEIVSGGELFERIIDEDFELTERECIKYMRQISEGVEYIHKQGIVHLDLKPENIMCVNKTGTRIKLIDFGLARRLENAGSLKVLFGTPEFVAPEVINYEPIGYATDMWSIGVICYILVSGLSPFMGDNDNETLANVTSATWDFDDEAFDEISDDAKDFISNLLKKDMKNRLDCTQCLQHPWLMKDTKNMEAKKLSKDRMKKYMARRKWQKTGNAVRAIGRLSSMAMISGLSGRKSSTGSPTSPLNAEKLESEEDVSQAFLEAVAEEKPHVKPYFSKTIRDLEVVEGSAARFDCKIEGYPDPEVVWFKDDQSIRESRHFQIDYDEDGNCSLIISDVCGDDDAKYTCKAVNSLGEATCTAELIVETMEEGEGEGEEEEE
Chain of NUAK family SNF1-like kinase 2 (Homo sapiens) (Q9H093 whole entry): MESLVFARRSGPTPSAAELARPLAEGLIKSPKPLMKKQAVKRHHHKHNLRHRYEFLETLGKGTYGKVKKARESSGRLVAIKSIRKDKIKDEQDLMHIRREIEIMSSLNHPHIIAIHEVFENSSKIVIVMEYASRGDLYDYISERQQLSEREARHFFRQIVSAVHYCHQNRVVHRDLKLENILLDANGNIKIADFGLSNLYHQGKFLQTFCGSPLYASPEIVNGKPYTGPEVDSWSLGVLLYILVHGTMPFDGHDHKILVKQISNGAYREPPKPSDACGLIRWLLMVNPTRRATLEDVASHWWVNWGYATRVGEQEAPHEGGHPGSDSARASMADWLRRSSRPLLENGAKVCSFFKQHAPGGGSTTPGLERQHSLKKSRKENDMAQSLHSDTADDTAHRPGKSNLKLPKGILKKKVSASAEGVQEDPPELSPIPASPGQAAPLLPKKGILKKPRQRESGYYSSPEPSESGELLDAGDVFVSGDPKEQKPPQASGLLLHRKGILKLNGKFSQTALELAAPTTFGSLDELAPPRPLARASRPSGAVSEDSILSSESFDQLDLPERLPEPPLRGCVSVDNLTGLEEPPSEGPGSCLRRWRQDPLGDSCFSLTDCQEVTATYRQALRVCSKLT
Chain of Dual specificity mitogen-activated protein kinase kinase 2 (Homo sapiens) (P36507 whole entry): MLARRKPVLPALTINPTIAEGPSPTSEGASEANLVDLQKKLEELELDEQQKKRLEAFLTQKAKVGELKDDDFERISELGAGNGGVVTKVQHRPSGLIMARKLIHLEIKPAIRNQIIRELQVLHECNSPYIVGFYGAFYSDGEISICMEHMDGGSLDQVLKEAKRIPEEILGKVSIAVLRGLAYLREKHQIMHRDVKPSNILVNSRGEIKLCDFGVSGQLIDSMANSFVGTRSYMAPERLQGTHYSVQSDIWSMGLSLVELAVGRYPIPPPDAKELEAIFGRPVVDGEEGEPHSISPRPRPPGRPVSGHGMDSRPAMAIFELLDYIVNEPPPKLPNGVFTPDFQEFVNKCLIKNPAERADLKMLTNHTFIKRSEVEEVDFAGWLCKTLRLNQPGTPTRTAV
Chain of Serine/threonine-protein kinase Nek1 (Homo sapiens) (Q96PY6 whole entry): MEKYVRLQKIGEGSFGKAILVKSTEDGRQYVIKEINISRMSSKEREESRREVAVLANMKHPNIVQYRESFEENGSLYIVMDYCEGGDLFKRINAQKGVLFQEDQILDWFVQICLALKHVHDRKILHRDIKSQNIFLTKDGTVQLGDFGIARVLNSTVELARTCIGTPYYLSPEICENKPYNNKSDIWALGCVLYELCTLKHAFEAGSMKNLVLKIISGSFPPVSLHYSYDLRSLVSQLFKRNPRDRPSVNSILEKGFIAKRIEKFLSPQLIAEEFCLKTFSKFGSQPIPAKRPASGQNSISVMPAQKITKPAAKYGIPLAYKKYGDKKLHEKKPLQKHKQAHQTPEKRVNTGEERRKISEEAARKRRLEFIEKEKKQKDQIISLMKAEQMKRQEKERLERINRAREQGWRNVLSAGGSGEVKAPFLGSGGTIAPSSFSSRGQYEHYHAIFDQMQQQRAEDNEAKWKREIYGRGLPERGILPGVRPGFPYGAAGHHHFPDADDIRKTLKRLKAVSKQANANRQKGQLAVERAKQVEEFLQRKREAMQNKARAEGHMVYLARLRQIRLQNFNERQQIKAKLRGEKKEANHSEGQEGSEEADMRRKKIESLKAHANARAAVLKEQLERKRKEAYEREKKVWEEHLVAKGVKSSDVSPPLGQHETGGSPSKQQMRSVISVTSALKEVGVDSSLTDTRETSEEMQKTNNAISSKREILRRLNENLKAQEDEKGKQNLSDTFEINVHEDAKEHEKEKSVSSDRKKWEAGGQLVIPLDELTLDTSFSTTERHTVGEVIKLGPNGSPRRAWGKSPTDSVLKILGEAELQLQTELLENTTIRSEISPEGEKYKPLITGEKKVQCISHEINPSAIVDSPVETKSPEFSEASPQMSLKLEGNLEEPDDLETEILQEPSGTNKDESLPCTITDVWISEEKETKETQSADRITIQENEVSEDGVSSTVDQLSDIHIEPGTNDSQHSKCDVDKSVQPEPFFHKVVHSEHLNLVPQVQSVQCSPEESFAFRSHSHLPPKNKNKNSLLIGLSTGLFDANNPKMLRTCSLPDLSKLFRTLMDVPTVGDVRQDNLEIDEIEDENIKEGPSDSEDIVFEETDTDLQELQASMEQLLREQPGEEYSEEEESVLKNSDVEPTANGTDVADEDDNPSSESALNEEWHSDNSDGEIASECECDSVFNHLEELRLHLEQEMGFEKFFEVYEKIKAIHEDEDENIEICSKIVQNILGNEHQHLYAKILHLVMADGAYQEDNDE

CC(C)n1cc(-c2cc(-c3ccc(CN4CCOCC4)cc3)cnc2N)nn1
inhibition [1]: -4.4%
inhibition [2]: 16.8%
inhibition [3]: 5%
inhibition [4]: -5.6%
inhibition [5]: -8.4%
inhibition [6]: 11.3%
inhibition [7]: -0.9%
inhibition [8]: 10%
inhibition [9]: 31.6%
